Values of other authors, collected in article PMC4585333, “Novel Regulator of Acylated Ghrelin, CF801, Reduces Weight Gain, Rebound Feeding after a Fast, and Adiposity in Mice” (Frontiers in Endocrinology, 2015).

Columns and labels:
GOAT = conditions: microsomal assay; ref [56]; cited from earlier work
Source text: An approach was undertaken to design a novel GOAT inhibitor, resulting in a compound we named CF801. The first five amino acids of CF801 derive from studies carried out in 2008 by Yang et al., who examined the inhibitory effect of certain pentapeptides (e.g., GSAFL-NH2) on GOAT using a microsomal assay ([56]). […] In synthesizing CF801, we extended and modified the original GSAFL-NH2 ...

[1] = effects appear similar to those of CF801; ref [74], [75]; cited from earlier work
Procedure: Given the high amino acid similarity between CF801 and desacyl ghrelin, it is possible that CF801 acts like an analog of desacyl ghrelin. […] Alternatively, CF801 may reduce acylated ghrelin simply by reducing GOAT mRNA, and thus acyl ghrelin levels, without altering GOAT activity at least in the way that this is tested in vitro. While the mechanisms underlying these ef ...

[2] = cited from earlier work
Source text: One potential target for the control of body weight and appetite is the gut–brain peptide ghrelin. Ghrelin, a 28-amino-acid peptide produced in the X/A-like cells of the gastric oxyntic mucosa lining the stomach, is a key regulator of both short- and long-term energy homeostasis ([1]–[3]). Circulating ghrelin levels rise in anticipation of a meal and subside once the organism is satiated ([4]–[7]).

GSAFL-NH2
inhibitory activity on GOAT (GOAT): showed inhibitory activity on GOAT

desacyl ghrelin
weight gain, ghrelin secretion and adipose tissue accumulation [1]: decrease in weight gain, ghrelin secretion, and adipose tissue accumulation

ghrelin
feeding after injection ([2]; injections of ghrelin, ref [35]–[37]): vigorous feeding bouts | respiratory exchange ratio (RER) ([2]; mice receiving daily injections of ghrelin, ref [3]): increases in RER
